Source: patent US20240228504A1, “SUBSTITUTED TRICYCLIC AMIDES, ANALOGUES THEREOF, AND METHODS USING SAME” (Arbutus Biopharma Corporation, priority 2020, published 2024)

system: HBV rcDNA in HepDE19 cells; test: HepDE19 assay with bDNA quantitation of HBV rcDNA; assay type: cell-based, hepatitis B virus; details: HepDE19 assay, inhibition of rcDNA formation, bDNA quantitation; read-out: DE-19bDNA EC50

SMILES	EC50
CN(C(=O)c1cc(F)c(Br)c(F)c1)C1COCc2[nH]c(=O)c3cc(F)ccc3c21 (single isomer, unassigned) [Compound 167, 4-Bromo-3,5-difluoro-N-(8-fluoro-6-oxo-2,4,5,6-tetrahydro-1H-pyrano[3,4-c]isoquinolin-1-yl)-N-methylbenzamide]	10 nM
CN(C(=O)c1cc2c(F)c(F)ccc2[nH]1)C1CNCc2[nH]c(=O)c3cc(F)c(F)cc3c21 (single isomer, unassigned) [Compound 119, N-(8,9-Difluoro-6-oxo-1,2,3,4,5,6-hexahydrobenzo[c][1,7]naphthyridin-1-yl)-4,5-difluoro-N-methyl-1H-indole-2-carboxamide]	10 nM
CN(C(=O)c1cc2c(F)c(F)ccc2[nH]1)C1COCc2[nH]c(=O)c3cc(F)ccc3c21 (single isomer, unassigned) [Compound 38, 4,5-Difluoro-N-(8-fluoro-6-oxo-1,4,5,6-tetrahydro-2H-pyrano[3,4-c]isoquinolin-1-yl)-N-methyl-1H-indole-2-carboxamide]	10 nM
CN(C(=O)c1cc2c(F)cccn2c1)C1CS(=O)(=O)Cc2[nH]c(=O)c3cc(F)c(F)cc3c21 (single isomer, unassigned) [Compound 152, N-(8,9-Difluoro-3,3-dioxido-6-oxo-2,4,5,6-tetrahydro-1H-thiopyrano[3,4-c]isoquinolin-1-yl)-8-fluoro-N-methylindolizine-2-carboxamide]	730 nM

same assay, conditions: Hepatitis B virus, HepDE19, HepDE19 assay, inhibition of rcDNA formation, bDNA quantitation; read-out: DE-19bDNA EC50

SMILES	EC50
CN(C(=O)c1ccc(F)c(C(F)F)c1)[C@@H]1COCc2[nH]c(=O)c3cc(F)c(F)cc3c21 [Compound 109, (S)-N-(8,9-Difluoro-6-oxo-1,4,5,6-tetrahydro-2H-pyrano[3,4-c]isoquinolin-1-yl)-3-(difluoromethyl)-4-fluoro-N-methylbenzamide]	20 nM
CN(C(=O)c1ccc(S(C)(=O)=O)cc1)[C@@H]1COCc2[nH]c(=O)c3cc(F)c(F)cc3c21 [Compound 295, (S)-N-(8,9-Difluoro-6-oxo-1,4,5,6-tetrahydro-2H-pyrano[3,4-c]isoquinolin-1-yl)-N-methyl-4-(methylsulfonyl)benzamide]	350 nM
CN(C(=O)c1ccc(C(F)(F)F)nc1)[C@@H]1COCc2[nH]c(=O)c3cc(F)c(F)cc3c21 [Compound 73, (S)-N-(8,9-Difluoro-6-oxo-1,4,5,6-tetrahydro-2H-pyrano[3,4-c]isoquinolin-1-yl)-N-methyl-6-(trifluoromethyl)nicotinamide]	120 nM
CN(C(=O)c1ccc2cccn2c1)[C@@H]1COCc2[nH]c(=O)c3cc(F)c(F)cc3c21 [Compound 227, (S)-N-(8,9-Difluoro-6-oxo-1,4,5,6-tetrahydro-2H-pyrano[3,4-c]isoquinolin-1-yl)-N-methylindolizine-6-carboxamide]	20 nM
CN(C(=O)c1cc2nc(Br)ccc2[nH]1)[C@@H]1COCc2[nH]c(=O)c3cc(F)c(F)cc3c21 [Compound 268, (S)-5-Bromo-N-(8,9-difluoro-6-oxo-1,4,5,6-tetrahydro-2H-pyrano[3,4-c]isoquinolin-1-yl)-N-methyl-1H-pyrrolo[3,2-b]pyridine-2-carboxamide]	1800 nM
CN(C(=O)c1cccc(-c2ccccc2)c1)[C@@H]1COCc2[nH]c(=O)c3cc(F)c(F)cc3c21 [Compound 288, (S)-N-(8,9-Difluoro-6-oxo-1,4,5,6-tetrahydro-2H-pyrano[3,4-c]isoquinolin-1-yl)-N-methyl-[1,1′-biphenyl]-3-carboxamide]	11300 nM
C=C(C(=O)N(C)[C@@H]1COCc2[nH]c(=O)c3cc(F)c(F)cc3c21)c1ccccc1 [Compound 189, (S)-N-(8,9-Difluoro-6-oxo-1,4,5,6-tetrahydro-2H-pyrano[3,4-c]isoquinolin-1-yl)-N-methyl-2-phenylacrylamide]	4400 nM
CN(C(=O)c1cc2c(C(F)F)c(F)ccc2[nH]1)[C@@H]1COCc2[nH]c(=O)c3cc(F)c(F)cc3c21 [Compound 254, (S)-N-(8,9-Difluoro-6-oxo-1,4,5,6-tetrahydro-2H-pyrano[3,4-c]isoquinolin-1-yl)-4-(difluoromethyl)-5-fluoro-N-methyl-1H-indole-2-carboxamide]	10 nM
